Reference: patent US20080214606A1, “Methods for the Identification and Use of Compounds Suitable for the Treatment of Drug Resistant Cancer Cells” (The Government of the United States of America as …, priority 2004, published 2008)
“Also recorded” adds a separate entry of the source.

Key:
ABCB3 = biological target: T1, ABCB3 (Homo sapiens, UniProt Q03519); assay: Correlation of ABCB3 expression with drug sensitivity across the NCI-60; type: cell-based; details: Pearson correlation of ABCB3 expression with sensitivity of the 60 cell lines; 1429 compounds; inverse, p < 0.0001
T1 construct: profiled in 60 diverse cancer cell lines (the NCI-60) using real-time RT-PCR; endogenous in cells; host or cells: NCI-60 human cancer cell lines
Description: (§2) Expression levels are measured by real-time quantitative RT-PCR using the LightCycler RNA Amplification SYBR Green kit and a LightCycler machine (Roche Biochemicals, Indianapolis, Ind.). […] When possible, the amplicons are designed to encompass exon-intron boundaries to avoid amplification of genomic DNA. Since the Syber Green assay detects accumulation of double stranded DNA, primers are selected (from a battery consisting of about 200 primers) that amplified a single product of the correct size.
(§3) RT-PCR is carried out on 150 ng total RNA, in the presence of 250 nM specific primers. […]
During PCR amplification, fluorescence emission is measured and recorded in real time by the LightCycler. Crossing point values are calculated, using the LightCycler software package, by the Fit Points analysis method, with baseline fluorescence set at 1. The SyberGreen assay measures accumulation of double-stranded products, and the appearance of primer dimers limits quantitation at high cycle numbers. […] The raw results are expressed as number of cycles to reach the crossing point. If the desired product is not detected, the corresponding value is adjusted to crossing points indicating no expression. To assess the contribution of experimental artifacts, selected cell lines are assessed in replicate.

ABCC11 = biological target: T2, ABCC11 (Homo sapiens, UniProt Q96J66); assay: Correlation of ABCC11 expression with drug sensitivity across the NCI-60; type: cell-based; details: after removal of the single, high-expressing cell line (T47D)
T2 construct: profiled in 60 diverse cancer cell lines (the NCI-60) using real-time RT-PCR; endogenous in cells; host or cells: NCI-60 human cancer cell lines
Description: as §2, §3
(§4) During PCR amplification, fluorescence emission is measured and recorded in real time by the LightCycler. Crossing point values are calculated, using the LightCycler software package, by the Fit Points analysis method, with baseline fluorescence set at 1. The SyberGreen assay measures accumulation of double-stranded products, and the appearance of primer dimers limits quantitation at high cycle numbers. […] The raw results are expressed as number of cycles to reach the crossing point. If the desired product is not detected, the corresponding value is adjusted to crossing points indicating no expression. To assess the contribution of experimental artifacts, selected cell lines are assessed in replicate. […]

[1] = system: ABCC11-transfected LLC-PK1 cells; assay: MTT assay, ABCC11-transfected vs sham-transfected LLC-PK1 cells; type: cell-based
Description: Panel A is a scatter plot showing the correlation (r) of ABCC11 expression with sensitivity of the 60 cells to NSC 671136 (r=−0.4; 99.99% two-tailed bootstrap confidence interval −0.6726 to −0.0141). […] Values are means ±S.E. of triplicate MTT assays.
(§1) Cell survival is measured by the MTT (3-(4,5-Dimethylthiazol-2-yl)-2,5-diphenyltetrazolium) Assay. Cells are seeded in 100 μl medium at a density of 5000 cells/well in 96 well plates, and serially diluted drug (with or without 2 μM PSC 833) is added the following day in 100 μl medium to give the indicated final concentration. Cells are then incubated for 72 hrs at 37° C. in 5% CO2, and the MTT assay is performed according to the manufacturer's instructions (Molecular Probes, Eugene, Oreg.).
One compound, NSC 671136 (shown in FIG. 5, Panel C), met the stringent bootstrap criterion for significant inverse correlation with the expression of ABCC11 in the 60 cell lines (FIG. 5, Panel A). An MTT assay was used to assess whether over-expression of ABCC11 can confer resistance to the NSC 671136 compound.

ABCB1 = ABCB1 (Homo sapiens, UniProt P08183); assay: Correlation of ABCB1 expression with drug sensitivity across the NCI-60
Method in brief: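 SYBR Green real-time RT-PCR on 150 ng total RNA with 250 nM primers: RT 20 min at 50 °C, then 45 cycles; expression taken as crossing-point cycle number. Correlated with drug sensitivity of 1429 compounds across the cell panel; permutation p-values with step-down and step-up (FDR q-value) multiple-testing correction.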

ABCD1 = biological target: T3, ABCD1 (Homo sapiens, UniProt P33897); assay: Correlation of ABCD1 expression with drug sensitivity across the NCI-60; type: cell-based; details: Pearson correlation of ABCD1 expression with sensitivity of the 60 cell lines; 1429 compounds; inverse, p < 0.0001
T3 construct: profiled in 60 diverse cancer cell lines (the NCI-60) using real-time RT-PCR; endogenous in cells; host or cells: NCI-60 human cancer cell lines
Description: as §2
RT-PCR is carried out on 150 ng total RNA, in the presence of 250 nM specific primers. Following reverse transcription (20 min at 50° C.), the PCR reaction consists of 45 cycles of denaturation (15 sec at 95° C.), annealing (30 sec at 58° C.), and elongation (30 sec at 72° C.). No-template (water) reaction mixtures are prepared as negative controls.
During PCR amplification, fluorescence emission is measured and recorded in real time by the LightCycler. Crossing point values are calculated, using the LightCycler software package, by the Fit Points analysis method, with baseline fluorescence set at 1. The SyberGreen assay measures accumulation of double-stranded products, and the appearance of primer dimers limits quantitation at high cycle numbers. The specificity of amplified products is verified by melting-curve analysis and agarose gel electrophoresis (not shown). The raw results are expressed as number of cycles to reach the crossing point. If the desired product is not detected, the corresponding value is adjusted to crossing points indicating no expression. To assess the contribution of experimental artifacts, selected cell lines are assessed in replicate.
The two are combined to form a joint dataset that includes 1429 compounds.
To determine quantitatively how well the 47 genes cluster the cell lines by their tissues of origin, a statistical method is employed wherein the kappa statistic is used to indicate how well the observed clusters correspond to the nine tissue-of-origin classifications. […] To control the overall false type 1 error rate, both a step-down procedure (Westfall and Young, 1993, Resampling-Based Multiple Testing: Examples and Methods for p-value Adjustment (New York: Wiley)) and a step-up procedure (Reiner et al., 2003, Bioinformatics 19:368-375) were employed to adjust for multiple testing of all 47 genes simultaneously. In the Benjamini-Hochberg procedure the p-values are computed in the standard way by permutation, assuming that all distributions are exchangeable: the number of values in the permuted data with correlations over a threshold, divided by the number of compounds and by the number of permutations. In this analysis, the False Discovery Rate (q-value) at which each compound would be declared was calculated using the step-up procedure for positively correlated test statistics (again true because all correlations being compared are computed against the same ABC gene): in this procedure the first q-value for the largest correlation is the Bonferroni-corrected p-value for that gene; then further q-values are calculated as qj=max(pj*1429/j, qj-1). This procedure limits the expected proportion of false positives in the list 1, . . . , j to at most qj.

[2] = system: KB-V1 cells (over-express MDR1-P-gp) vs parental KB-3-1 cells; assay: MTT assay using the KB-3-1/KB-V1 cell pair; type: cell-based, human
Description: as §1
To test whether our approach using the NCI-60 does, in fact, identify new substrates, an MTT assay is used to test all top-scoring compounds that were available from DTP for follow-up experiments. KB-3-1, a human carcinoma cell line, and KB-V1, a multidrug resistant derivative of KB-3-1 that over-expresses MDR1-P-gp (Shen et al., 1986, J. Biol. Chem. 261:7762-7770), are used for the tests. […] This resistance of KB-V-1 cells is invariably reversible by PSC 833. The intrinsic fluorescence of one of the compounds, NSC 634791, allows for the measurement of the effect of MDR1 activity on its export from cells.

[3] = system: KB Hela cells expressing ABCB1(MDR1) under tetracycline control; assay: MTT assay using HeLa-transfectants with human MDR1 under tetracycline control; type: cell-based; details: absence (On) or presence (Off) of 2 μg/ml tetracycline
Description: Panel A is a scatter plot showing positive correlation (r=+0.54; 95% confidence interval 0.259 to 0.713) of ABCB1 expression with sensitivity of the 60 cell lines to NSC 73306. […] Cells are grown in the absence (ABCB1(MDR1)-On) or presence (ABCB1(MDR1)-Off) of 2 μg/ml tetracycline for at least seven days before starting the MTT assay. Cell surface expression and function of ABCB1 (MDR1) are verified prior to the assay by staining with anti-MDR1 monoclonal antibody (MRK-16) and by a performing a functional assay based on MDR1-controlled accumulation of the fluorescent dye Calcein (Homolya et al., 1996, Br. J. Cancer 73:849-855). […] Values are means ±S.E. of triplicate measurements.
as §1, with “Oreg.). […]” for “Oreg.).”

MDR1 positive cells = assay: Pretreatment of MDR1 positive cells with MDR1-potentiated compound (loss of MDR phenotype); type: cell-based
From the text: In another preferred embodiment, the invention relates to methods of inhibiting the development of a multidrug resistance phenotype in a cancer in a subject comprising administering an ABCB1 potentiated agent to the subject. As used herein, inhibiting the development of a multidrug resistant phenotype refers to both the inhibition of the initial onset of the phenotype or the inhibition of any further development of the multidrug phenotype. It is contemplated as part of the invention that the ABCB1 potentiated agent may be administered simultaneously with a chemotherapeutic agent that is a substrate of the ABCB1 transporter. It is understood as an aspect of the invention that such simultaneous administration refers to administration within the same general time period rather than at the same exact moment in time. Thus treatment with the ABCB1 potentiated compound and the chemotherapeutic agent may be on the same day or on different days, or in the same week or in different weeks. It is within the skill of the ordinary artisan to optimize a treatment schedule to maintain the therapeutic efficacy of the chemotherapeutic agent by administration of the ABCB1 potentiated compound to inhibit the development of drug resistance. MDR1-potentiated compounds may be used to prevent the emergence of drug resistance clones. […]

MDR1 = MDR1 (Homo sapiens, UniProt P08183); assay: Block of MDR1-mediated transport of other molecules; type: cell-based
ABCB2 = biological target: T4, ABCB2 (Homo sapiens, UniProt Q03518); assay: Correlation of ABCB2 expression with drug sensitivity across the NCI-60; type: cell-based; details: Pearson correlation of ABCB2 expression with sensitivity of the 60 cell lines; 1429 compounds; inverse, p < 0.0001
T4 construct: profiled in 60 diverse cancer cell lines (the NCI-60) using real-time RT-PCR; endogenous in cells; host or cells: NCI-60 human cancer cell lines
Description: (§5) Expression levels are measured by real-time quantitative RT-PCR using the LightCycler RNA Amplification SYBR Green kit and a LightCycler machine (Roche Biochemicals, Indianapolis, Ind.). Specific oligonucleotide probes are designed for each of the ABC transporters using DNAStar Primer Select (DNASTAR Inc.), and they may be synthesized at Lofstrand Laboratories (Gaithersburg, Md.). When possible, the amplicons are designed to encompass exon-intron boundaries to avoid amplification of genomic DNA. Since the Syber Green assay detects accumulation of double stranded DNA, primers are selected (from a battery consisting of about 200 primers) that amplified a single product of the correct size. […]
as §4

ABCC8 = biological target: T5, ABCC8 (Homo sapiens, UniProt Q09428); assay: Correlation of ABCC8 expression with drug sensitivity across the NCI-60; type: cell-based; details: Pearson correlation of ABCC8 expression with sensitivity of the 60 cell lines; 1429 compounds; inverse, p < 0.0001
T5 construct: profiled in 60 diverse cancer cell lines (the NCI-60) using real-time RT-PCR; endogenous in cells; host or cells: NCI-60 human cancer cell lines
Description: as §2, §3, §4

ABCD4 = biological target: T6, ABCD4 (Homo sapiens, UniProt O14678); assay: Correlation of ABCD4 expression with drug sensitivity across the NCI-60; type: cell-based; details: Pearson correlation of ABCD4 expression with sensitivity of the 60 cell lines; 1429 compounds; inverse, p < 0.0001
T6 construct: profiled in 60 diverse cancer cell lines (the NCI-60) using real-time RT-PCR; endogenous in cells; host or cells: NCI-60 human cancer cell lines
Description: as §5, §4

ABCD3 = biological target: T7, ABCD3 (Homo sapiens, UniProt P28288); assay: Correlation of ABCD3 expression with drug sensitivity across the NCI-60; type: cell-based; details: Pearson correlation of ABCD3 expression with sensitivity of the 60 cell lines; 1429 compounds; inverse, p < 0.0001
T7 construct: profiled in 60 diverse cancer cell lines (the NCI-60) using real-time RT-PCR; endogenous in cells; host or cells: NCI-60 human cancer cell lines
Description: as §5, §4

ABCF1 = biological target: T8, ABCF1 (Homo sapiens, UniProt Q8NE71); assay: Correlation of ABCF1 expression with drug sensitivity across the NCI-60; type: cell-based; details: Pearson correlation of ABCF1 expression with sensitivity of the 60 cell lines; 1429 compounds; inverse, p < 0.0001
T8 construct: endogenous in cells; host or cells: NCI-60 human cancer cell lines
Description: as §5, §4

ABCC9 = biological target: T9, ABCC9 (Homo sapiens, UniProt O60706); assay: Correlation of ABCC9 expression with drug sensitivity across the NCI-60; type: cell-based; details: Pearson correlation of ABCC9 expression with sensitivity of the 60 cell lines; 1429 compounds; inverse, p < 0.0001
T9 construct: profiled in 60 diverse cancer cell lines (the NCI-60) using real-time RT-PCR; endogenous in cells; host or cells: NCI-60 human cancer cell lines
Description: as §2, §3, §4

ABCC4 = biological target: T10, ABCC4 (Homo sapiens, UniProt O15439); assay: Correlation of ABCC4 expression with drug sensitivity across the NCI-60; type: cell-based; details: Pearson correlation of ABCC4 expression with sensitivity of the 60 cell lines; 1429 compounds; inverse, p < 0.0001
T10 construct: profiled in 60 diverse cancer cell lines (the NCI-60) using real-time RT-PCR; endogenous in cells; host or cells: NCI-60 human cancer cell lines
Description: as §2, §3, §4

ABCA2 = biological target: T11, ABCA2 (Homo sapiens, UniProt Q9BZC7); assay: Correlation of ABCA2 expression with drug sensitivity across the NCI-60; type: cell-based; details: Pearson correlation of ABCA2 expression with sensitivity of the 60 cell lines; 1429 compounds; inverse, p < 0.0001
T11 construct: profiled in 60 diverse cancer cell lines (the NCI-60) using real-time RT-PCR; endogenous in cells; host or cells: NCI-60 human cancer cell lines
Description: as §2, §3, §4

ABCG8 = biological target: T12, ABCG8 (Homo sapiens, UniProt Q9H221); assay: Correlation of ABCG8 expression with drug sensitivity across the NCI-60; type: cell-based; details: Pearson correlation of ABCG8 expression with sensitivity of the 60 cell lines; 1429 compounds; inverse, p < 0.0001
T12 construct: endogenous in cells; host or cells: NCI-60 human cancer cell lines
Description: as §5, §4

Chain of ABCB1 (P08183 whole entry): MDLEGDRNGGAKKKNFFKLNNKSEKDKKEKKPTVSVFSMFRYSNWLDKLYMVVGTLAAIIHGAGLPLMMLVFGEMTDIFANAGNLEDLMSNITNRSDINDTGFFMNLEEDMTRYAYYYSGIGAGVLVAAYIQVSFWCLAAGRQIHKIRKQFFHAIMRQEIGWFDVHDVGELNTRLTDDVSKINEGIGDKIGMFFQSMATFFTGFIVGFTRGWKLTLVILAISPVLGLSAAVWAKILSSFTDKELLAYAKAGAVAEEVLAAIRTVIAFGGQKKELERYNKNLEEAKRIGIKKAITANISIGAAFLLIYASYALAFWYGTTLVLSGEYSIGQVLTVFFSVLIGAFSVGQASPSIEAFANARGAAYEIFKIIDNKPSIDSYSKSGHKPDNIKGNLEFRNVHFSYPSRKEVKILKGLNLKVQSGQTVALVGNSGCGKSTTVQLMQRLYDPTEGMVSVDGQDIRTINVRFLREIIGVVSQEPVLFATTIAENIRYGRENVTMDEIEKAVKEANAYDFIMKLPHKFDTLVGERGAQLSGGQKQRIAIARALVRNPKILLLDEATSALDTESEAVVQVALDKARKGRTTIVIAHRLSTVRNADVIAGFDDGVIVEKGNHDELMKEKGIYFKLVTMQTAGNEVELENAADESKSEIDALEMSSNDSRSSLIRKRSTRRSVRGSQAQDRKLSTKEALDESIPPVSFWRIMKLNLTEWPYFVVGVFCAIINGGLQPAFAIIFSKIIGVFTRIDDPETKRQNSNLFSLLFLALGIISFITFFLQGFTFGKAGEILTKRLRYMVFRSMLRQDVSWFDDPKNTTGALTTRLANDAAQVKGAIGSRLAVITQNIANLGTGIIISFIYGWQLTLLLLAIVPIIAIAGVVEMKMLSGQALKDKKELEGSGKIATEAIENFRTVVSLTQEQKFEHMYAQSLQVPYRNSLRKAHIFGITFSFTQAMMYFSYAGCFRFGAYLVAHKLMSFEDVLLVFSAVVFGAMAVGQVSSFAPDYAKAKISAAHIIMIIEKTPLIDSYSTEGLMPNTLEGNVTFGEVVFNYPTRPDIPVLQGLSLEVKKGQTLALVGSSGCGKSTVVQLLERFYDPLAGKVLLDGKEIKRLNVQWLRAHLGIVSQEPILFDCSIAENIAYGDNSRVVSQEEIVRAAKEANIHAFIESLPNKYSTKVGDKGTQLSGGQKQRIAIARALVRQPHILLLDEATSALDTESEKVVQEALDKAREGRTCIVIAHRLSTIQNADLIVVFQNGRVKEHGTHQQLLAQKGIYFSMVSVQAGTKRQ
T3 sequence (P33897 whole entry): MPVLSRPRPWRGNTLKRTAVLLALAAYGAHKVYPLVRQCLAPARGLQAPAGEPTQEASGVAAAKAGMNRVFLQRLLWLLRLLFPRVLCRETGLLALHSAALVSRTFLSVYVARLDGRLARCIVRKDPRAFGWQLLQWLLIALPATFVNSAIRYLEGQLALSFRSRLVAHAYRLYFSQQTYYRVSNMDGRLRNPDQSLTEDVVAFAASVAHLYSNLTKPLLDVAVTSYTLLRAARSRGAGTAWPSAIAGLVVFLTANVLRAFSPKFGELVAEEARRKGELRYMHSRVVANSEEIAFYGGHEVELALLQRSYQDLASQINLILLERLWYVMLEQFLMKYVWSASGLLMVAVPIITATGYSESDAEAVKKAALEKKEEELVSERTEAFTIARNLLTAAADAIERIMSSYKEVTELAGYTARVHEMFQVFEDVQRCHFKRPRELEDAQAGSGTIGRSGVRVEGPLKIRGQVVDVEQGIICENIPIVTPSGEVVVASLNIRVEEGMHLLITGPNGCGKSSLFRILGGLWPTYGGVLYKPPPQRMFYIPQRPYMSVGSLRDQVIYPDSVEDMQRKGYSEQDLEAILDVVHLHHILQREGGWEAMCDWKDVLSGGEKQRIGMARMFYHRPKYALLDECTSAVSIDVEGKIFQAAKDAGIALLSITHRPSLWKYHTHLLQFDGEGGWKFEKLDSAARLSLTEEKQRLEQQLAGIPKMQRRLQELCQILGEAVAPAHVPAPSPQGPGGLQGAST
T11 sequence (Q9BZC7 whole entry): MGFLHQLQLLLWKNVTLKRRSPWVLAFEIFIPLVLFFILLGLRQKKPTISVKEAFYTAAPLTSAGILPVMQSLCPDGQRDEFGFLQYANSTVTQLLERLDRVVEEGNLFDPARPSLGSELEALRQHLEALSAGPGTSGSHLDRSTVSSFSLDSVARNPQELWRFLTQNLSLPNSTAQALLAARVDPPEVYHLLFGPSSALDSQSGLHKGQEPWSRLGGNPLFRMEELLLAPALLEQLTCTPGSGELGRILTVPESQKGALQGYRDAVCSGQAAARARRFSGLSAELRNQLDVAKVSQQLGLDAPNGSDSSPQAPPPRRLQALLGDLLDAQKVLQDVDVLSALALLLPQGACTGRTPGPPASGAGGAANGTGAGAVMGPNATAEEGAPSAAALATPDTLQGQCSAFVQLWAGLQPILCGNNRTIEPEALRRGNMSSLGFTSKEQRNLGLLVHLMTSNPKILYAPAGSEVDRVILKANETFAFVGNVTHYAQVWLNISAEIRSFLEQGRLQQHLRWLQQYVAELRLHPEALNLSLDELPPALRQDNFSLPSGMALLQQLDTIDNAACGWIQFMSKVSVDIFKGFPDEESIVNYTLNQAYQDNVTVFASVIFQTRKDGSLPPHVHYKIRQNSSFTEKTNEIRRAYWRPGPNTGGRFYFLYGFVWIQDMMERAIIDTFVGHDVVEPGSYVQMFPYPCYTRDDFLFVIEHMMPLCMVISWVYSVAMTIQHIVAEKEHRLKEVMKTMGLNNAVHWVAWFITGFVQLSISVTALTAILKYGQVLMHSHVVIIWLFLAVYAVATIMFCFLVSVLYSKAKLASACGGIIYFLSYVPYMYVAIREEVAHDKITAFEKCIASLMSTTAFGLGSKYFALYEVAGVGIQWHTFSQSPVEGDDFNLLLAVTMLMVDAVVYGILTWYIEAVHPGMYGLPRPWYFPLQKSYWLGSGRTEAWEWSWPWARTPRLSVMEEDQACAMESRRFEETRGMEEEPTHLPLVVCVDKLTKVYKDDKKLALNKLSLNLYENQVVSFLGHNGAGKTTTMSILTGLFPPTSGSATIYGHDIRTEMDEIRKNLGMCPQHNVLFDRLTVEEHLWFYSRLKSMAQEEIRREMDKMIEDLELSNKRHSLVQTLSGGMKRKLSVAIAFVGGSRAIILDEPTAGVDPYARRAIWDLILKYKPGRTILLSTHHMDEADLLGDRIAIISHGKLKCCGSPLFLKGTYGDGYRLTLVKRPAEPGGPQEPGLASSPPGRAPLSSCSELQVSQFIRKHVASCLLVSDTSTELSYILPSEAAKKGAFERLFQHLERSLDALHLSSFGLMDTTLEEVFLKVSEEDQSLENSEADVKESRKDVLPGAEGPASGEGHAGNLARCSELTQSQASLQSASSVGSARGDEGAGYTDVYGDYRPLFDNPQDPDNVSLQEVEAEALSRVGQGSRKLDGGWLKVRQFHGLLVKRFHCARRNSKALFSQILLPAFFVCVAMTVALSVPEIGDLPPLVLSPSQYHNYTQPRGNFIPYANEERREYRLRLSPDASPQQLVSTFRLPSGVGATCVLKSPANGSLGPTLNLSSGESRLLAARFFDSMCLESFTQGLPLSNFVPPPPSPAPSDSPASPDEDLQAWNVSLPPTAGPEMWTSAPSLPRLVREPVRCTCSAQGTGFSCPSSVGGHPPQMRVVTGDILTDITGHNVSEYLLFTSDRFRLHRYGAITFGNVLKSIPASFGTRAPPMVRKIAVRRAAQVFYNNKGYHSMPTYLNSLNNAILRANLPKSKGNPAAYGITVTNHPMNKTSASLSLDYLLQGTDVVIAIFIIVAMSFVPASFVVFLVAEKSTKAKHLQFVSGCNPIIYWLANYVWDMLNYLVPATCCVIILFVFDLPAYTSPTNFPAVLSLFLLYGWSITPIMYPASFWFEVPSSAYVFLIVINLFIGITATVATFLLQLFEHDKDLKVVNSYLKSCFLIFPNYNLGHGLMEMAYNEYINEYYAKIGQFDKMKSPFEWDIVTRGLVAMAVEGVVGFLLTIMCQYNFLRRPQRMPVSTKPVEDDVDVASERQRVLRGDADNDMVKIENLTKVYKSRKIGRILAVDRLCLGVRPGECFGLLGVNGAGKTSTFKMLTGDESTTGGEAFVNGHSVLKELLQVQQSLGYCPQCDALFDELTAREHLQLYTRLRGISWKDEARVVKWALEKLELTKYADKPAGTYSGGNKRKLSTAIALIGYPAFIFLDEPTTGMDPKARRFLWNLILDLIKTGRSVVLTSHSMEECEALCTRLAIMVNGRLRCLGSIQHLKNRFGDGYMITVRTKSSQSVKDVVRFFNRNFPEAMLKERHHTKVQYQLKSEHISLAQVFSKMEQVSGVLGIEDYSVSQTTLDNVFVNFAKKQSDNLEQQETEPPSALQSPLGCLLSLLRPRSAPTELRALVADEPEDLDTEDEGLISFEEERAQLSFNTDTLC
T7 sequence (P28288 whole entry): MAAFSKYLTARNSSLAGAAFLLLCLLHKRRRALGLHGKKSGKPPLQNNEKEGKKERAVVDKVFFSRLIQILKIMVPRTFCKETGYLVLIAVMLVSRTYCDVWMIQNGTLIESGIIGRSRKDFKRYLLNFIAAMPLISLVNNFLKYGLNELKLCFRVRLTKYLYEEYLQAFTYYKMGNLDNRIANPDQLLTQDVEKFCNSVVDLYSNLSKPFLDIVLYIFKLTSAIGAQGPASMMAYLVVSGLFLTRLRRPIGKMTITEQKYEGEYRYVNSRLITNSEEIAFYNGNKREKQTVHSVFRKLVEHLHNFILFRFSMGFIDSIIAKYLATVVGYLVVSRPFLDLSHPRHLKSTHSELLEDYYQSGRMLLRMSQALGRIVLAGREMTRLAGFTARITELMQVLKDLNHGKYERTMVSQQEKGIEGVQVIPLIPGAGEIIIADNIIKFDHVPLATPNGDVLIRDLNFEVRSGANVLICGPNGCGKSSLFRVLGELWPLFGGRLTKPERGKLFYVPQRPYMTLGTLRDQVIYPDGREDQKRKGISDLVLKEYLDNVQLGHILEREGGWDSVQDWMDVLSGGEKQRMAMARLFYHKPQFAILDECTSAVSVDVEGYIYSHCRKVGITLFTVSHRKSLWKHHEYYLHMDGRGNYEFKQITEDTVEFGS

## CS(=O)(=O)c1cc(=O)c2ccccc2s1 [NSC 622282]
ABCB3
  Correlation: −0.4406

## CC(=O)c1sc2c(c1OC(=O)c1ccc(Cl)cc1Cl)c(=O)n(-c1ccccc1)c(=S)n2-c1ccccc1 [NSC 671136]
ABCC11
  Correlation (r) of ABCC11 expression with sensitivity: −0.38
[1]
  Resistance of ABCC11-transfected LLC-PK1 cells relative to sham-transfected cells: two- to three-fold

## COc1ccc(NC(=S)N/N=C2\C(=O)Nc3c(Cl)cc(Cl)cc32)cc1 [NSC 73306]
ABCB1
  Correlation of antiproliferative activity with ABCB1 expression: 0.511
ABCD1
  Correlation: −0.6029
[2]; MTT assay with 2 μM PSC 833
  Effect of PSC 833 on the heightened sensitivity of KB-V1 cells: completely reversed sensitivity; also recorded: completely abolished the heightened sensitivity
[2]; MTT assay, 72 hrs
  Sensitivity of KB-V1 cells relative to parental KB-3-1 (potentiation by ABCB1): four- to five-fold; also recorded: approximately four-fold
[3]
  Sensitivity of MDR1-On cells relative to MDR1-Off cells: two- to four-fold; also recorded: approximately two-fold
MDR1 positive cells; non-MDR1 substrates such as cisplatin and methotrexate
  Drug sensitivity for non-MDR1 substrates after pretreatment: unchanged
MDR1 positive cells; pretreatment of MDR1 positive cells
  Drug resistance to MDR1 substrates after pretreatment: almost complete elimination of drug resistance
MDR1
  Block of MDR1-mediated transport of other molecules: does not block

## CC(C)C1=CC2=CC[C@@H]3[C@](C)(CCC[C@@]3(C)C(=O)O)[C@H]2CC1 [NSC 25149]
ABCB2
  Correlation: −0.3794

## COc1cc2[nH]c3c(c2cc1OC)CCN[C@@]31CC[C@@]2(CC3c4c(cc(OC)c(O)c42)CCN3C)C[C@@H]1OC (some centres unmarked) [NSC 626578]
ABCC8
  Correlation: −0.4335

## CC(=O)OC(C)(C)/C=C/C(=O)[C@](C)(O)[C@H]1[C@H](O)C[C@@]2(C)[C@@H]3CC=C4[C@@H](C=C(O)C(=O)C4(C)C)[C@]3(C)C(=O)C[C@]12C [NSC 106399]
ABCB1
  Pearson's Correlation Coeff: 0.1871
ABCD4
  Correlation: −0.4232

## O=c1[nH]cc(F)c(=O)[nH]1 [NSC 19893]
ABCD3
  Correlation: −0.4232

## N[C@H](C(=O)O)[C@@H]1CC(Cl)=NO1 [NSC 163501]
ABCB1
  Pearson's Correlation Coeff: 0.2122
ABCD1
  Correlation: −0.4301
ABCF1
  Correlation: −0.5274

## COc1cc2c(c(OC)c1OC)-c1cccc(=O)cc1C(NC(C)=O)CC2 (centres unmarked) [NSC 352277]
ABCC9
  Correlation: −0.3094

## CSCSCC(CO)NC(=O)/C=C\c1c(C)[nH]c(=O)[nH]c1=O (centres unmarked) [NSC 251820]
ABCC4
  Correlation: −0.4340

## O=C1c2cccc3cc([N+](=O)[O-])cc(c23)C(=O)N1Nc1ccc([N+](=O)[O-])cc1[N+](=O)[O-] [NSC 679265]
ABCA2
  Correlation: −0.3298

## C=C1[C@@H](C)[C@H]2[C@H](Cc3ccccc3)NC(=O)[C@]23[C@H](OC(C)=O)/C=C/[C@@](C)(O)C(=O)[C@@H](C)C/C=C/[C@H]3[C@@H]1O [NSC 209835]
ABCG8
  Correlation: −0.4443
